The series concerns human LPA gene (Genbank number: NM_005577.4). As to the kind of experiment: Inhibitory activity against LPA mRNA, psiCHECK-2 dual-luciferase reporter vector in Huh7 cells. The class given is cell-based. The settings on record: Huh7 cells transfected with LPA_psiCHECK-2 plasmid, RNAiMAX transfection. The method, then: A stock solution was prepared by dissolving in PBS and stored at -20 °C.
The human LPA gene (Genbank number: NM_005577.4) was cloned into the psiCHECK™-2 vector.
Huh7 cells were cultured in DMEM (Gibco-11995-065, 500 mL) medium, supplemented with FBS (ExCellBio-FSP500, 57 mL), Penicillin-Streptomycin solution (Hyclone-SV30010, 5.7 mL), GlutaMAX™ (Gibco-35050-061, 5.7 mL) and Non-Essential Amino Acids Solution (Gibco-11140050, 5.7 mL).
On Day 1, a method for transfection of the LPA_PSICHECK (TM)-2 plasmid is briefly described as follows: Huh7 cells were washed with DPBS, followed by digestion with 0.05% trypsin, gently pipetted into single cells in DMEM containing 10% FBS, and counted. Plasmid DNA was transferred into Huh7 cells using Fugene HD. The transfected cells were seeded into 96-well plates at a density of 10,000 cells per well, with 100 µL culture medium per well. The cells were incubated overnight in a 5% CO2 incubator at 37 °C.
On Day 2, the test compounds were diluted serially with PBS to 3 concentrations.
RNAiMAX transfection reagent was prepared by blending homogeneously with Opti-MEM at a ratio of RNAiMAX: Opti-MEM=3:47 in a 15 mL centrifuge tube as needed. The compounds were mixed with the RNAiMAX/Opti-MEM (1:1) and incubated for 15 min. The compound-containing RNAiMAX/Opti-MEM mixture was diluted 10-fold with fresh medium and blended homogeneously.
The medium in each well was aspirated, and then 100 µL of the fresh compound-containing medium was added, and then incubated in a 5% CO2, 37 °C incubator.
Experimental procedures refer to DUAL-GLO® Dual Luciferase Assay System instructions, briefly described as follows: Taking out the cells from the incubator, aspirating and discarding the supernatant, adding 75µL fresh culture medium and 75µL detection reagent, shaking for 10 minutes in the dark, and after the cells had been fully lysed, transfering100µL sample to an opaque whiteboard for detecting the Firefly luminescence signal; adding 50 µL Dual-Glo®Stop & Glo® test reagent to each well and detecting the Renilla luciferase signal after shaking for 10 minutes in the dark. The ratio of the reporter signal to the internal control reporter signal was calculated for each well.
[formula] % Inhibition = (1-Sampleratio/RNAiMAXcontrolratio) × 100% [formula]

pEC50: −log10 of the molar value.

In general, pEC50 refers to the EC50 on a negative log10 scale, so that one unit is a factor of ten. A lower pEC50 goes with a high EC50.

In turn, “Z36: siRNA conjugate: sense SEQ ID NO:50, ligand D18 at 3' end of sense strand, antisense SEQ ID NO:75 (sense CCTGCCAAGCTTGGTCATCTA; antisense TAGATGNCCAAGCTTGGCNGGTT; ligand D18 at sense 3' end; listed as RNA; modified_base 1..2: mod_base = OTHER; note = 2'-O-methylcytidine; modified_base 3: mod_base = OTHER; note = 2'-O-methyluridine; modified_base 4: mod_base = OTHER; note = 2'-O-methylguanosine; modified_base 5..6: mod_base = OTHER; note = 2'-O-m; modified_base 1: mod_base = OTHER; note = E-type vinylphosphonate-modified 2'-O-methyluridine; modified_base 2: mod_base = OTHER; note = 2'-fluoroadenosine; modified_base 4: m)” showed a pEC50 of 9.64.

Consider “Z26: siRNA conjugate: sense SEQ ID NO:42, ligand D18 at 3' end of sense strand, antisense SEQ ID NO:65 (sense CCCTTATTGTTANACGA; antisense TCTCGTATNACAATAAGGGGCTT; ligand D18 at sense 3' end; listed as RNA; modified_base 1..2: mod_base = OTHER; note = 2'-O-methylcytidine; modified_base 3: mod_base = OTHER; modified_base 4: mod_base = OTHER; note = 2'-O-methyluridine; modified_base 5: mod_base = OTHER; note = 2'-fluorou; modified_base 1: mod_base = OTHER; note = 2'-fluorocytidine; note = 2'-O-methylg)”, for which the pEC50 is 8.55.

In turn, “Z20: siRNA conjugate: sense SEQ ID NO:27, ligand D01 at 3' end of sense strand, antisense SEQ ID NO:56 (sense CCCTTATTGTTATACG; antisense ATCCCTCGTANAACAATAAGGGGCTGTT; 2'-OMe/2'-F modified, ligand at sense 3' end, full pattern not given here)” had a pEC50 of 9.29.

“Z23: siRNA conjugate: sense SEQ ID NO:39, ligand D18 at 3' end of sense strand, antisense SEQ ID NO:64 (sense NNCCCCTTATTGTTATACGN; antisense TCTCGTANAACAATAAGGGGCTGTT; 2'-OMe/2'-F modified, ligand at sense 3' end, full pattern not given here)” showed a pEC50 of 9.92.

“Z37: siRNA conjugate: sense SEQ ID NO:51, ligand D18 at 3' end of sense strand, antisense SEQ ID NO:76 (sense CCTGCCAAGCTTGGTCATCTA; antisense TAGATGNCCAAGCTTGGCNGGTT; ligand D18 at sense 3' end; listed as RNA; modified_base 1..2: mod_base = OTHER; note = 2'-O-methylcytidine; modified_base 3: mod_base = OTHER; note = 2'-O-methyluridine; modified_base 4: mod_base = OTHER; note = 2'-O-methylguanosine; modified_base 5..6: mod_base = OTHER; note = 2'-O-m; modified_base 1: mod_base = OTHER; note = E-type vinylphosphonate-modified 2'-O-methyluridine; modified_base 2: mod_base = OTHER; note = 2'-deoxyadenosine; modified_base 4: mo)”: the pEC50 was 9.64.

Substance “Z1: siRNA conjugate: sense SEQ ID NO:27, ligand D08 at 3' end of sense strand, antisense SEQ ID NO:56 (sense CCCTTATTGTTATACG; antisense ATCCCTCGTANAACAATAAGGGGCTGTT; 2'-OMe/2'-F modified, ligand at sense 3' end, full pattern not given here)” had a pEC50 of 9.92.

Consider “Z13: siRNA conjugate: sense SEQ ID NO:27, ligand D08 at 3' end of sense strand, antisense SEQ ID NO:61 (sense CCCTTATTGTTATACG; antisense ATCCCTCGTANAACAATAAGGGGCTGTT; 2'-OMe/2'-F modified, ligand at sense 3' end, full pattern not given here)”, for which the pEC50 is 9.38.

The substance “Z52: siRNA conjugate: sense SEQ ID NO:53, ligand D01 at 3' end of sense strand, antisense SEQ ID NO:88 (sense CTTGCCAAGCTTGGTCATCTA; antisense TCTAGATGNCCAAGCTTGGCAAG; ligand D01 at sense 3' end; listed as RNA; modified_base 1: mod_base = OTHER; note = 2'-O-methylcytidine; modified_base 2: mod_base = OTHER; note = 2'-O-methyluridine; modified_base 3: mod_base = OTHER; modified_base 4: mod_base = OTHER; note = 2'-O-methylgua; note = 2'-fluoroadenosine; modified_base 5: mod_base = OTHER; note = 2'-O-methyl)” showed a pEC50 of 9.85.

Substance “Z15: siRNA conjugate: sense SEQ ID NO:27, ligand D08 at 3' end of sense strand, antisense SEQ ID NO:63 (sense CCCTTATTGTTATACG; antisense ATCCCTCGTANAACAATAAGGGGCTG; 2'-OMe/2'-F modified, ligand at sense 3' end, full pattern not given here)” showed a pEC50 of 9.64.

On to “Z25: siRNA conjugate: sense SEQ ID NO:41, ligand D18 at 3' end of sense strand, antisense SEQ ID NO:64 (sense NNCCCCTTATTGTTATACGNGA; antisense TCTCGTANAACAATAAGGGGCTGTT; ligand D18 at sense 3' end; listed as RNA; modified_base 1: mod_base = OTHER; note = n is invAb; modified_base 2: mod_base = OTHER; note = n is R; modified_base 3..6: mod_base = OTHER; note = 2'-O-methylcytidine; modified_base 7: mod_base = OTHER; note = 2'-O-methyluridine; modified_ba; modified_base 3: mod_base = OTHER; modified_base 4: mod_base = OTHER; note = 2'-fluorocytidine; modified_base 5: mod_base = OTHER; note = 2'-O-methylg)”, for which the pEC50 was 9.17.

With “Z11: siRNA conjugate: sense SEQ ID NO:27, ligand D08 at 3' end of sense strand, antisense SEQ ID NO:59 (sense CCCTTATTGTTATACG; antisense ATCCCTCGTANAACAATAAGGGGCTGCC; 2'-OMe/2'-F modified, ligand at sense 3' end, full pattern not given here)”, the negative logarithm of the EC50 (pEC50) is 9.25.

In turn, “Z12: siRNA conjugate: sense SEQ ID NO:27, ligand D08 at 3' end of sense strand, antisense SEQ ID NO:60 (sense CCCTTATTGTTATACG; antisense ATCCCTCGTANAACAATAAGGGGCTG; 2'-OMe/2'-F modified, ligand at sense 3' end, full pattern not given here)” showed a pEC50 of 9.49.

On to “Z18: siRNA conjugate: sense SEQ ID NO:36, ligand D01 at 3' end of sense strand, antisense SEQ ID NO:61 (sense NNCCCCTTATTGTTATACN; antisense ATCCCTCGTANAACAATAAGGGGCTGTT; 2'-OMe/2'-F modified, ligand at sense 3' end, full pattern not given here)”, for which the pEC50 was 9.60.

“Z22: siRNA conjugate: sense SEQ ID NO:38, ligand D18 at 3' end of sense strand, antisense SEQ ID NO:64 (sense NNCCCCTTATTGTTATACNA; antisense TCTCGTANAACAATAAGGGGCTGTT; 2'-OMe/2'-F modified, ligand at sense 3' end, full pattern not given here)” showed a pEC50 of 9.55.

For the substance “Z10: siRNA conjugate: sense SEQ ID NO:34, ligand D08 at 3' end of sense strand, antisense SEQ ID NO:56 (sense CCCTTATTGTTATACG; antisense ATCCCTCGTANAACAATAAGGGGCTGTT; 2'-OMe/2'-F modified, ligand at sense 3' end, full pattern not given here)”, the negative logarithm of the EC50 (pEC50) is 8.68.

The values are drawn from patent publication EP4707393A1, “DOUBLE-STRANDED SIRNA, CONJUGATE THEREOF AND USE THEREOF” (CMS Research & Development Pte. Ltd., priority 2023, dated 2024).
